{"source": "patent US9232796B2", "about": "“Herbicidal compositions comprising 4-amino-3-chloro-5-fluoro-6-(4-chloro-2-fluoro-3-methoxyphenyl) pyridine-2-carboxylic acid or a derivative thereof and acetyl-CoA carboxylase (ACCase) inhibitors” (DOW AGROSCIENCES LLC, priority 2012, dated 2016)", "key": {"[1]": {"system": "SCPMA", "test": "Example VI in-water applied ternary mixtures, greenhouse, transplanted paddy rice weeds", "type": "in vivo, Schoenoplectus maritimus (L.) Lye", "procedure": "Applications were made by injecting with a pipetter appropriate amounts of the application solutions, into the aqueous layer of the paddy. Control plants were treated in the same manner with the solvent blank. Applications were made so that all treated plant material received the same concentrations of acetone and crop oil concentrate.\nThe treated plants and control plants were placed in a greenhouse as described above and water was added as needed to maintain a paddy flood. After approximately 3 weeks the condition of the test plants as compared with that of the untreated plants was determined visually and scored on a scale of 0 to 100 percent where 0 corresponds to no injury or growth inhibition and 100 corresponds to complete kill.\nColby's equation was used to determine the herbicidal effects expected from the mixtures (Colby, S. R. 1967. Calculation of the synergistic and antagonistic response of herbicide combinations. Weeds 15:20-22.).\nThe following equation was used to calculate the expected activity of mixtures containing three active ingredients, A. B, and C: Expected=A+B+C−((A×B+A×C+B×C)/100)+(A×B×C/10000)"}, "[2]": {"system": "SCPJU", "test": "Example VI in-water applied ternary mixtures, greenhouse, transplanted paddy rice weeds", "type": "in vivo, Schoenoplectus juncoides (Roxb.) Palla", "procedure": "Weed seeds or nutlets of the desired test plant species were planted in puddled soil (mud) prepared by mixing a shredded, non-sterilized mineral soil (50.5 percent silt, 25.5 percent clay, and 24 percent sand, with a pH of about 7.6 and an organic matter content of about 2.9 percent) and water at a 1:1 volumetric ratio. The prepared mud was dispensed in 365 mL aliquots into 16-ounce (oz.) non-perforated plastic pots with a surface area of 86.59 square centimeters (cm^2) leaving a headspace of 3 centimeters (cm) in each pot. Mud was allowed to dry overnight prior to planting or transplanting. Rice seeds were planted in Sun Gro MetroMix® 306 planting mixture, which typically has a pH of 6.0 to 6.8 and an organic matter content of about 30 percent, in plastic plug trays. Seedlings at the second or third leaf stage of growth were transplanted into 860 mL of mud contained in 32-oz. non-perforated plastic pots with a surface area of 86.59 cm^2 4 days prior to herbicide application. The paddy was created by filling the headspace of the pots with 2.5 to 3 cm of water. When required to ensure good germination and healthy plants, a fungicide treatment and/or other chemical or physical treatment was applied. The plants were grown for 4-22 days in a greenhouse with an approximate 14 hr. photoperiod which was maintained at about 29° C. during the day and 26° C. during the night. Nutrients were added as Osmocote® (19:6:12, N:P:K+minor nutrients) at 2 g per 16-oz. pot and 4 g per 32-oz. pot. Water was added on a regular basis to maintain the paddy flood, and supplemental lighting was provided with overhead metal halide 1000-Watt lamps as necessary. The plants were employed for testing when they reached the first through fourth true leaf stage.\nTreatments consisted of the benzyl ester of 4-amino-3-chloro-5-fluoro-6-(4-chloro-2-fluoro-3-methoxy-phenyl)pyridine-2-carboxylic acid (Compound A), formulated as an SC (suspension concentrate), an ACCase inhibitor herbicide, and a third herbicidal component, each applied alone and in ternary combination. Forms of compound A were applied on an acid equivalent basis.\nThe ACCase inhibitor component was applied on an active ingredient basis and included cyhalofop-R-butyl formulated as Clincher® G and metamifop formulated as Metamifop EC. […]\nTreatment requirements for each compound or herbicidal component were calculated based upon the rates being tested, the concentration of active ingredient or acid equivalent in the formulation, an application volume of 1 mL per component per pot, and an application area of 86.59 cm^2 per pot.\nFor formulated compounds, a measured amount was placed in an individual 100 or 200 mL glass vial and was dissolved in a volume of 1.25% (v/v) Agri-Dex® crop oil concentrate to obtain application solutions. […]"}}}
{"compound": "COc1c(Cl)ccc(-c2nc(C(=O)OCc3ccccc3)c(Cl)c(N)c2F)c1F", "note": "[Compound A Benzyl Ester, benzyl ester of 4-amino-3-chloro-5-fluoro-6-(4-chloro-2-fluoro-3-methoxy-phenyl)pyridine-2-carboxylic acid]", "values": [{"measurement": "Visual Weed Control (%) - 24 DAA SCPMA Obs", "setting": "[1]; 4 gae/ha", "value": 0, "unit": "%"}, {"measurement": "Visual Weed Control (%) - 24 DAA SCPMA Obs", "setting": "[1]; 8 gae/ha", "value": 0, "unit": "%"}, {"measurement": "Visual Weed Control (%) - 24 DAA SCPMA Obs", "setting": "[1]; 16 gae/ha", "value": 0, "unit": "%"}, {"measurement": "Visual Weed Control (%) - 21 DAA SCPJU Obs", "setting": "[2]; 2.19 gae/ha", "value": 77, "unit": "%"}]}
{"compound": "CCCCOC(=O)[C@@H](C)Oc1ccc(Oc2ccc(C#N)cc2F)cc1", "note": "[Cyhalofop-butyl, butyl(2R)-2-[4-(4-cyano-2-fluorophenoxy)phenoxy]propanoate, reference compound]", "values": [{"measurement": "Visual Weed Control (%) - 24 DAA SCPMA Obs", "setting": "[1]; 180 gai/ha", "value": 0, "unit": "%"}, {"measurement": "Visual Weed Control (%) - 21 DAA SCPJU Obs", "setting": "[2]; 22.5 gai/ha", "value": 0, "unit": "%"}, {"measurement": "Visual Weed Control (%) - 21 DAA SCPJU Obs", "setting": "[2]; 45 gai/ha", "value": 0, "unit": "%"}]}
